In patent publication US5972671A, “Fructosyl amino acid oxidase and process for producing the same” (Kyoto Daiichi Kagaku Co., Ltd., priority 1994, dated 1999):
Read-outs that look alike come from different tables or passages of the source.

Assays:
[1] = system: FLOD-G derived from Gibberella fujikuroi (IFO No. 6605); test: Effect of metal ion on the activity of FLOD-G; type: biochemical
Description: Then, the enzyme activity was evaluated.

[2] = system: FLOD-S derived from S-1F4 strain; test: Effect of metal ion on the activity of FLOD-S; type: biochemical, Fusarium oxysporum S-1F4
Description: After 5 minutes of incubation at 30° C., the enzyme activity was evaluated.

[3] = system: FLOD-S derived from S-1F4 strain; test: Substrate specificity of FLOD-S (hydrogen peroxide generation)
Description: The partially purified enzyme was prepared in the following manner. Thus, S-1F4 strain was grown in a GL brown-colored medium for 24 hours and the culture was filtered with suction to harvest mycelia. The mycelia were then washed, suspended in 0.1 M Tris-HCl buffer (pH 8.5), ground by means of Dino-Mill and centrifuged. The centrifugal supernatant is fractionated with ammonium sulfate and purified using DEAE-Sephacel ion-exchange chromatography to obtain the partially purified enzyme. The purified enzyme was prepared according to the method described in Example 1 below.
A 50 mM FZL solution was prepared by dissolving FZL previously obtained in distilled water. To a mixture of 100 μl of 45 mM 4-aminoantipyrine, 100 μl of peroxidase (60 U/ml), 100 μl of 60 mM phenol, 1 ml of 0.1 M Tris-HCl buffer (pH 8.0) and 50 μl of enzyme solution was added distilled water to give a total volume of 2.9 ml and the solution was allowed to equilibrate at 30° C. After the addition of 100 μl of 50 mM FZl solution, the time-course of absorbance at 505 nm was measured. The amount (μmol) of hydrogen peroxide produced in one minute was calculated on the basis of a molar absorption coefficient (5.16×10^3 M^-1 cm^-1) of a quinone pigment produced. The resultant numerical value was taken as a unit(U) of enzyme activity.

[4] = system: FLOD-G derived from Gibberella fujikuroi; test: Substrate specificity of FLOD-G
Description: To a mixture of 100 μl of 45 mM 4-aminoantipyrine, 100 μl of peroxidase solution (60 U/ml), 100 μl of 60 mM phenol, 1 ml of 0.1 M Tris-HCl buffer (pH 8.0) and 50 μl of enzyme solution, was added distilled water to give a total volume of 2.95 ml and the solution was allowed to be equilibrated at 30° C. After the addition of 50 μl of 100 mM FZL solution, the time-course of absorbance at 505 nm was measured. The amount (μmol) of hydrogen peroxide produced in one minute was calculated on the basis of a molar absorption coefficient (5.16×10^3 M^-1 cm^-1) of a quinone pigment produced. The resultant numerical value was taken as a unit (U) of enzyme activity.

[5] = system: FLOD-G derived from Gibberella fujikuroi; test: Effect of various inhibitors on the activity of FLOD-G; stabilization; type: biochemical
Description: The inhibitory effect of various substances was tested in a manner substantially analogous to that described in (1) above. The stabilization effect was examined by dialyzing overnight against 50 mM Tris-HCl buffer (pH 8.5) containing 2 mM DTT and measuring the activity.

[6] = system: FLOD-S derived from S-1F4 strain; test: Effect of various inhibitors on activity of FLOD-S; stabilization; type: biochemical, Fusarium oxysporum S-1F4
Description: In the present test, the final concentration of PCMB (parachloro mercuric benzoate) is 0.1 mM while that of others 1 mM. The stabilization effect was examined by dialyzing the mixture overnight against 50 mM Tris-HCl buffer (pH 8.5) containing 2 mM dithiothreitol (DTT) and measuring the enzyme activity.

[7] = metal 1 mM, 0.1 M Tris-HCl pH 8.0, pre-incubated 5 minutes at 30° C., None = 100
[8] = metal 1 mM, 0.1 M Tris-HCl pH 8.0, 5 minutes at 30° C., None = 100
[9] = partially purified FLOD-S, substrate 0.018%
[10] = inhibitor (mM), concentration not given, None = 100

Row | Molecule | Specific activity (%) [1, 7] [%] | Specific activity (%) [2, 8] [%] | Specific activity (%) [5, 10] [%] | Specific activity (%) ([6]; reagent 1 mM, None = 100) | also measured
1 | [Cl][Cu][Cl] [CuCl2] | 2 | 0 |  |  | Inhibition of FLOD-G activity by metal ion ([1]; metal 1 mM): inhibited; Inhibition of FLOD-S activity by metal ion ([2]; metal 1 mM): completely inhibited
2 | Fructosyl poly-L-lysine |  |  |  |  | Specificity of FLOD-S to substrate [3]: specific; Activity [3, 9]: 0.0738 U/ml; Specific activity (%) [3, 9]: 2.3%; Specific activity (%) ([3]; purified FLOD-S, substrate 0.02%): 2.3%; Activity of FLOD-G on substrate [4]: active; Specific activity (%) ([4]; FLOD-G, substrate 0.017%): 1.0%
3 | NO [Hydroxylamine] |  |  | 16 | 21 | Inhibition of FLOD-G activity by inhibitor [5]: strongly inhibited
4 | c1ccc(-c2ccccn2)nc1 [α,α'-Dipyridyl] |  |  | 78 | 106 | 
5 | c1cnc2c(c1)ccc1cccnc12 [O-Phenanthrolene] |  |  | 78 | 103 | 
6 | O=C(O)CI [Iodoacetic acid] |  |  |  |  | Specific activity (%) [5]: 77%; Specific activity (%) [6]: 102%
7 | O=S(=O)([O-])[O-].[Fe+2] [FeSO4] | 74 | 97 |  |  | 
8 | [Cl-].[Cl-].[Mg+2] [MgCl2] | 94 | 75 |  |  | 
9 | [Ba+2].[Cl-].[Cl-] [BaCl2] | 103 | 60 |  |  | 
10 | N=C(N)NN [Aminoguanidine] |  |  | 50 | 66 | Inhibition of FLOD-G activity by inhibitor [5]: strongly inhibited
11 | C#CCN(C)C(C)Cc1ccccc1 (stereo not shown) [Deprenyl] |  |  | 81 | 102 | 
12 | [Cl][Fe]([Cl])[Cl] [FeCl3] | 16 | 67 |  |  | Inhibition of FLOD-G activity by metal ion ([1]; metal 1 mM): inhibited
13 | O=C(O)CN(CCN(CC(=O)O)CC(=O)O)CC(=O)O [EDTA] |  |  |  |  | Specific activity (%) [5]: 81%
14 | [Cl-].[Cs+] [CsCl2] | 97 | 102 |  |  | 
15 | [Ca+2].[Cl-].[Cl-] [CaCl2] | 97 | 77 |  |  | 
16 | [N-]=[N+]=[N-] [Sodium azide] |  |  | 78 | 101 | 
17 | O=C(O)c1cc[c]([Hg][Cl])cc1 [PCMB, parachloro mercuric benzoate] |  |  |  |  | Inhibition of FLOD-G activity by inhibitor [5]: strongly inhibited; Specific activity (%) ([5]; inhibitor 0.1 mM, None = 100): 51%; Inhibition of FLOD-S activity by inhibitor ([6]; PCMB 0.1 mM, others 1 mM): completely inhibited; Specific activity (%) ([6]; reagent 0.1 mM, None = 100): 0%

Row | Molecule | Specific activity (%) [1, 7] [%] | Specific activity (%) [2, 8] [%] | Specific activity (%) [5, 10] [%] | Specific activity (%) ([6]; reagent 1 mM, None = 100) | also measured
18 | NNc1ccccc1 [Phenylhydrazine] |  |  | 13 | 2.6 | Inhibition of FLOD-G activity by inhibitor [5]: strongly inhibited; Inhibition of FLOD-S activity by inhibitor [6]: inhibited
19 | O=S(=O)([O-])[O-].[Co+2] [CoSO4] | 15 | 42 |  |  | Inhibition of FLOD-G activity by metal ion ([1]; metal 1 mM): inhibited
20 | [Cl][Hg][Cl] [HgCl2] | 25 | 0 |  |  | Inhibition of FLOD-G activity by metal ion ([1]; metal 1 mM): inhibited; Inhibition of FLOD-S activity by metal ion ([2]; metal 1 mM): completely inhibited
21 | O=[N+]([O-])[O-].[Ag+] [AgNO3] | 0 | 0 |  |  | Inhibition of FLOD-G activity by metal ion ([1]; metal 1 mM): completely inhibited; Inhibition of FLOD-S activity by metal ion ([2]; metal 1 mM): completely inhibited
22 | O=C(O)c1cc(SSc2ccc([N+](=O)[O-])c(C(=O)O)c2)ccc1[N+](=O)[O-] [5,5',-Dithiobis(2-nitrobenzoic acid)] |  |  | 76 | 95 | 
23 | [Cl][Mn][Cl] [MnCl2] | 115 | 154 |  |  | 
24 | O=C(N[C@@H](CCCCNCC(=O)[C@@H](O)[C@H](O)[C@H](O)CO)C(=O)O)OCc1ccccc1 [Fructosyl N^α -Z-lysine, fructosyl N^α -Z-lysine] |  |  |  |  | Specificity of FLOD-S to substrate [3]: remarkably specific
25 | [Cl-].[Na+] [NaCl] |  |  |  |  | Specific activity (%) ([1]; pH 8): 97%; Specific activity (%) ([2]; pH 8): 107%
26 | O=S(=O)([O-])[O-].[Zn+2] [ZnSO4] | 33 | 0 |  |  | Inhibition of FLOD-G activity by metal ion ([1]; metal 1 mM): inhibited; Inhibition of FLOD-S activity by metal ion ([2]; metal 1 mM): completely inhibited
27 | [Cl-].[Rb+] [RbCl] | 97 | 103 |  |  | 
28 | [Cl-].[K+] [KCl] | 98 | 104 |  |  | 
29 | NN [Hydrazine] |  |  | 14 | 13 | Inhibition of FLOD-G activity by inhibitor [5]: strongly inhibited; Inhibition of FLOD-S activity by inhibitor [6]: inhibited
30 | O[C@H](CS)[C@H](O)CS (racemic) [dithiothreitol] |  |  |  |  | Stabilization of FLOD-G ([5]; dialysis overnight against 50 mM Tris-HCl buffer (pH 8.5) containing 2 mM DTT): stabilized; Stabilization of FLOD-S ([6]; pH 8.5): stabilized
31 | NNC(N)=O [Semicarbazide] |  |  | 77 | 103 | 
32 | [Cl-].[Li+] [LiCl] | 96 | 100 |  |  | 
33 | C#CCN(C)CCCOc1ccc(Cl)cc1Cl [Clorgyline] |  |  |  | 132 | 
